According to patent US20060134102A1, “Lymphotoxin beta receptor agents in combination with chemotherapeutic agents” (Biogen Idec MA Inc., priority 2002, published 2006):

System: KM-20L2 human colorectal adenocarcinoma
Assay: KM-20L2 xenograft model: growth of established KM-20L2 human colorectal tumors in athymic nude mice (tumor volume/weight, % T/C, Fa, Combination Index)
Format: in vivo

In the case of `Nc1ccn([C@@H]2O[C@H](CO)[C@@H](O)C2(F)F)c(=O)n1` [Gemcitabine, gemcitabine, reference compound], the “Mean Tumor Volume” value (Gem 10 mg/kg, Day 37) is reported as 723.7 cubic mm, the “Mean Tumor Volume Decrease” value (Gem 10 mg/kg, Day 37) is reported as 484.3 cubic mm and the “Mean Fraction Affected (Fa)” value (Gem 10 mg/kg, Day 41) is reported as 0.399. For the same molecule, the “Mean Fraction Affected/Fraction Unaffected (Fa/Fu)” value (Gem 10 mg/kg, Day 41) was 0.664, the “Mean Tumor Volume” value (Gem 10 mg/kg, Day 41) was 865.2 cubic mm and the “Mean Tumor Volume Decrease” value (Gem 10 mg/kg, Day 41) was 574.2 cubic mm. The “Mean Fraction Affected (Fa)” value (Gem 10 mg/kg, Day 43) was 0.393, the “Mean Fraction Affected/Fraction Unaffected (Fa/Fu)” value (Gem 10 mg/kg, Day 43) was 0.647 and the “Mean Tumor Volume” value (Gem 10 mg/kg, Day 43) was 975.7 cubic mm. For the same molecule, the “Mean Tumor Volume Decrease” value (Gem 10 mg/kg, Day 43) was 631.0 cubic mm, the “Mean Fraction Affected (Fa)” value (Gem 20 mg/kg, Day 9) was 0.053 and the “Mean Fraction Affected/Fraction Unaffected (Fa/Fu)” value (Gem 20 mg/kg, Day 9) was 0.056. The “Mean Tumor Volume” value (Gem 20 mg/kg, Day 9) was 105.9 cubic mm, the “Mean Tumor Volume Decrease” value (Gem 20 mg/kg, Day 9) was 5.9 cubic mm and the “Mean Fraction Affected (Fa)” value (Gem 20 mg/kg, Day 13) was 0.357. For the same molecule, the “Mean Fraction Affected/Fraction Unaffected (Fa/Fu)” value (Gem 20 mg/kg, Day 13) was 0.555, the “Mean Tumor Volume” value (Gem 20 mg/kg, Day 13) was 111.0 cubic mm and the “Mean Tumor Volume Decrease” value (Gem 20 mg/kg, Day 13) was 61.6 cubic mm. The “Mean Fraction Affected (Fa)” value (Gem 20 mg/kg, Day 16) was 0.623, the “Mean Fraction Affected/Fraction Unaffected (Fa/Fu)” value (Gem 20 mg/kg, Day 16) was 1.655 and the “Mean Tumor Volume” value (Gem 20 mg/kg, Day 16) was 99.8 cubic mm. For the same molecule, the “Mean Tumor Volume Decrease” value (Gem 20 mg/kg, Day 16) was 165.2 cubic mm, the “Mean Fraction Affected (Fa)” value (Gem 20 mg/kg, Day 20) was 0.748 and the “Mean Fraction Affected/Fraction Unaffected (Fa/Fu)” value (Gem 20 mg/kg, Day 20) was 2.966. The “Mean Tumor Volume” value (Gem 20 mg/kg, Day 20) was 101.1 cubic mm, the “Mean Tumor Volume Decrease” value (Gem 20 mg/kg, Day 20) was 299.9 cubic mm and the “Mean Fraction Affected (Fa)” value (Gem 20 mg/kg, Day 23) was 0.721. The “Mean Fraction Affected/Fraction Unaffected (Fa/Fu)” value (Gem 20 mg/kg, Day 23) was 2.579, the “Mean Tumor Volume” value (Gem 20 mg/kg, Day 23) was 147.3 cubic mm and the “Mean Tumor Volume Decrease” value (Gem 20 mg/kg, Day 23) was 379.9 cubic mm. The “Mean Fraction Affected (Fa)” value (Gem 20 mg/kg, Day 27) was 0.663, the “Mean Fraction Affected/Fraction Unaffected (Fa/Fu)” value (Gem 20 mg/kg, Day 27) was 1.970 and the “Mean Tumor Volume” value (Gem 20 mg/kg, Day 27) was 225.1 cubic mm. For the same molecule, the “Mean Tumor Volume Decrease” value (Gem 20 mg/kg, Day 27) was 443.5 cubic mm, the “Mean Fraction Affected (Fa)” value (Gem 20 mg/kg, Day 30) was 0.605 and the “Mean Fraction Affected/Fraction Unaffected (Fa/Fu)” value (Gem 20 mg/kg, Day 30) was 1.530. For the same molecule, the “Mean Tumor Volume” value (Gem 20 mg/kg, Day 30) was 322.6 cubic mm, the “Mean Tumor Volume Decrease” value (Gem 20 mg/kg, Day 30) was 493.6 cubic mm and the “Mean Fraction Affected (Fa)” value (Gem 20 mg/kg, Day 34) was 0.578. For the same molecule, the “Mean Fraction Affected/Fraction Unaffected (Fa/Fu)” value (Gem 20 mg/kg, Day 34) was 1.371, the “Mean Tumor Volume” value (Gem 20 mg/kg, Day 34) was 443.0 cubic mm and the “Mean Tumor Volume Decrease” value (Gem 20 mg/kg, Day 34) was 607.3 cubic mm. The “Mean Fraction Affected (Fa)” value (Gem 20 mg/kg, Day 37) was 0.568, the “Mean Fraction Affected/Fraction Unaffected (Fa/Fu)” value (Gem 20 mg/kg, Day 37) was 1.314 and the “Mean Tumor Volume” value (Gem 20 mg/kg, Day 37) was 522.1 cubic mm. For the same molecule, the “Mean Tumor Volume Decrease” value (Gem 20 mg/kg, Day 37) was 685.9 cubic mm, the “Mean Fraction Affected (Fa)” value (Gem 20 mg/kg, Day 41) was 0.532 and the “Mean Fraction Affected/Fraction Unaffected (Fa/Fu)” value (Gem 20 mg/kg, Day 41) was 1.135. The “Mean Tumor Volume” value (Gem 20 mg/kg, Day 41) was 674.3 cubic mm, the “Mean Tumor Volume Decrease” value (Gem 20 mg/kg, Day 41) was 765.1 cubic mm and the “Mean Fraction Affected (Fa)” value (Gem 20 mg/kg, Day 43) was 0.531. The “Mean Fraction Affected/Fraction Unaffected (Fa/Fu)” value (Gem 20 mg/kg, Day 43) was 1.134, the “Mean Tumor Volume” value (Gem 20 mg/kg, Day 43) was 753.0 cubic mm and the “Mean Tumor Volume Decrease” value (Gem 20 mg/kg, Day 43) was 853.7 cubic mm. For the same molecule, the “Median Effect Dose” value (Given Separately, Day 16) was 14.1 mg/kg, the “Median Effect Dose” value (Given Separately, Day 20) was 10.1 mg/kg and the “Median Effect Dose” value (Given Separately, Day 23) was 10.8 mg/kg. For the same molecule, the “Median Effect Dose” value (Given Separately, Day 27) was 12.8 mg/kg, the “Median Effect Dose” value (Given Separately, Day 30) was 14.1 mg/kg and the “Median Effect Dose” value (Given Separately, Day 34) was 14.8 mg/kg. The “Median Effect Dose” value (Given Separately, Day 37) was 15.0 mg/kg, the “Median Effect Dose” value (Given Separately, Day 41) was 16.8 mg/kg and the “Median Effect Dose” value (Given Separately, Day 43) was 16.9 mg/kg. The “Median Effect Dose” value (dose of the labelled agent when huCBE11 and Gemcitabine Combined (4:5), Day 16) was 4.5 mg/kg, the “Median Effect Dose” value (dose of the labelled agent when huCBE11 and Gemcitabine Combined (4:5), Day 20) was 1.7 mg/kg and the “Median Effect Dose” value (dose of the labelled agent when huCBE11 and Gemcitabine Combined (4:5), Day 23) was 0.7 mg/kg. The “Median Effect Dose” value (dose of the labelled agent when huCBE11 and Gemcitabine Combined (4:5), Day 27) was 0.9 mg/kg, the “Median Effect Dose” value (dose of the labelled agent when huCBE11 and Gemcitabine Combined (4:5), Day 30) was 0.8 mg/kg and the “Median Effect Dose” value (dose of the labelled agent when huCBE11 and Gemcitabine Combined (4:5), Day 34) was 0.8 mg/kg. For the same molecule, the “Median Effect Dose” value (dose of the labelled agent when huCBE11 and Gemcitabine Combined (4:5), Day 37) was 0.5 mg/kg, the “Median Effect Dose” value (dose of the labelled agent when huCBE11 and Gemcitabine Combined (4:5), Day 41) was 0.7 mg/kg and the “Median Effect Dose” value (dose of the labelled agent when huCBE11 and Gemcitabine Combined (4:5), Day 43) was 0.6 mg/kg. For the same molecule, the “Activity by NCI criteria (% T/C of 42 or less)” value (gemcitabine) was “active”, the “Inhibition of tumor growth vs vehicle control” value (gemcitabine 20 mg/kg Days 13-55, 10 mg/kg Days 16-55, 5 mg/kg Days 13-43, separate study) was “Significant inhibition of tumor growth” and the “% T/C” value (gemcitabine 20 mg/kg, Day 16 through Day 34) was no more than 42%. For the same molecule, the “% T/C” value (gemcitabine 25 mg/kg, Day 17 through Day 31) was no more than 42%, the “Inhibition of tumor growth vs saline control” value (gemcitabine 140, 100, 50 and 25 mg/kg, Day 10 to Day 41) was “Significant inhibition of tumor growth” and the “% T/C” value (gemcitabine 140, 100 and 50 mg/kg, from Days 14 or 17 for the duration of the study) was no more than 42%.
